Results published in ChEMBL document CHEMBL4813965, “Discovery of CYR715: A novel carboxylic acid-containing soluble guanylate cyclase stimulator” (Bioorg Med Chem Lett, 2021).
Values after ≈ are worked out from the molar mass of the structure shown.

Columns and labels:
[1] = Drug metabolism in rat assessed as formation of reactive and migrated acyl glucuronides metabolites; assay type: ADME
[2] = AUC in rat at 1 mg/kg, po; assay type: ADME, organism-based; parameters: dose 1 mg/kg; conditions: in vivo
[3] = Apparent permeability across apical to basolateral side of dog MDR1-MDCK2 cells; assay type: ADME, cell-based, Canis lupus familiaris, MDCK-II; conditions: MDCK-MDR1
[4] = Solubility of the compound at pH 7.0; assay type: physicochemical; conditions: buffer
[5] = Oral bioavailability in rat at 1 mg/kg; assay type: ADME, organism-based; conditions: in vivo

| SMILES | Drug metabolism [1] | AUC [2] | Papp A→B [3] | solubility [4] | bioavailability [5] |
| --- | --- | --- | --- | --- | --- |
| C[C@H]1CCCN(c2nc(-c3cc(-c4ccon4)n(Cc4ccccc4F)n3)ncc2F)[C@H]1C(=O)O | Metabolite_Detected |  |  |  |  |
| Oc1nc(-c2cc(-c3ccon3)n(Cc3ccccc3F)n2)ncc1F |  | 25000 ng·h/mL | 24 ×10⁻⁶ cm/s | 3 µg/mL (≈ 8.44 µM) |  |
| C[C@@H]1CCCN(c2nc(-c3cc(-c4ccon4)n(Cc4ccccc4F)n3)ncc2F)[C@@H]1C(=O)O | Metabolite_Detected | 3700 ng·h/mL | 40 ×10⁻⁶ cm/s | 21 µg/mL (≈ 43.7 µM) | > 100% |

The remaining lines, values ahead:

| Drug metabolism [1] | AUC [2] | Papp A→B [3] | solubility [4] | bioavailability [5] | SMILES |
| --- | --- | --- | --- | --- | --- |
| Metabolite_Detected |  |  |  |  | O=C(O)C1CCN(c2nc(-c3cc(-c4ccon4)n(Cc4ccccc4F)n3)ncc2F)CC1 |
| Metabolite_Detected |  |  |  |  | O=C(O)[C@@H]1CCCCN1c1nc(-c2cc(-c3ccon3)n(Cc3ccccc3F)n2)ncc1F |
| Metabolite_Detected |  |  |  |  | O=C(O)[C@H]1CCCCN1c1nc(-c2cc(-c3ccon3)n(Cc3ccccc3F)n2)ncc1F |
| Metabolite_Detected |  |  |  |  | O=C(O)C1CCCN(c2nc(-c3cc(-c4ccon4)n(Cc4ccccc4F)n3)ncc2F)C1 (racemic) |
